Test system: REC8 mRNA expression in gastric cancer cell lines
Assay: Demethylation treatment with 5-Aza, REC8 mRNA by RT-PCR
Format: cell-based, human
Conditions: 2 uM 5-Aza for 5 days
Procedure: Gastric cancer cells were treated with 2 uM DNA demethylation agent 5-Aza-2′-deoxycytidine (5-Aza) (Sigma-Aldrich, St Louis, Mo.) for 5 days and medium was refreshed every day.
Total RNA was extracted from cell pellets or tissues using Qiazol® reagent (Qiagen, Valencia, Calif.), and cDNA was synthesized using Transcriptor Reverse Transcriptase (Roche, Indianapolis, Ind.). RT-PCR was performed using the GoTaq® DNA polymerase (Promega). qPCR was performed using SYBR Green master mixture on HT7900 system (Applied Biosystems, Foster City, Calif.). Primers used are listed in Table 5 and also published previously.^7

## Nc1ncn([C@H]2C[C@H](O)[C@@H](CO)O2)c(=O)n1 [5-Aza, 5-Aza-2′-deoxycytidine]
AGS with REC8 expression/unmethylated
  REC8 mRNA expression: had no effect
Cell lines with REC8 down-regulated/methylated (BGC823, SNU719, NCI-N87, MKN28, AGS-EBV)
  REC8 mRNA expression: restored
